Results from patent US11560371B2, “Cereblon binding compounds, compositions thereof, and methods of treatment therewith” (Celgene Corporation, priority 2020, dated 2023).
Where a name gives a salt, the structure may show the parent alone.

Target: T1, AR (Homo sapiens, UniProt P10275)
T1 construct: endogenous in cells; host or cells: VCaP cells
T1 sequence (P10275 1-920): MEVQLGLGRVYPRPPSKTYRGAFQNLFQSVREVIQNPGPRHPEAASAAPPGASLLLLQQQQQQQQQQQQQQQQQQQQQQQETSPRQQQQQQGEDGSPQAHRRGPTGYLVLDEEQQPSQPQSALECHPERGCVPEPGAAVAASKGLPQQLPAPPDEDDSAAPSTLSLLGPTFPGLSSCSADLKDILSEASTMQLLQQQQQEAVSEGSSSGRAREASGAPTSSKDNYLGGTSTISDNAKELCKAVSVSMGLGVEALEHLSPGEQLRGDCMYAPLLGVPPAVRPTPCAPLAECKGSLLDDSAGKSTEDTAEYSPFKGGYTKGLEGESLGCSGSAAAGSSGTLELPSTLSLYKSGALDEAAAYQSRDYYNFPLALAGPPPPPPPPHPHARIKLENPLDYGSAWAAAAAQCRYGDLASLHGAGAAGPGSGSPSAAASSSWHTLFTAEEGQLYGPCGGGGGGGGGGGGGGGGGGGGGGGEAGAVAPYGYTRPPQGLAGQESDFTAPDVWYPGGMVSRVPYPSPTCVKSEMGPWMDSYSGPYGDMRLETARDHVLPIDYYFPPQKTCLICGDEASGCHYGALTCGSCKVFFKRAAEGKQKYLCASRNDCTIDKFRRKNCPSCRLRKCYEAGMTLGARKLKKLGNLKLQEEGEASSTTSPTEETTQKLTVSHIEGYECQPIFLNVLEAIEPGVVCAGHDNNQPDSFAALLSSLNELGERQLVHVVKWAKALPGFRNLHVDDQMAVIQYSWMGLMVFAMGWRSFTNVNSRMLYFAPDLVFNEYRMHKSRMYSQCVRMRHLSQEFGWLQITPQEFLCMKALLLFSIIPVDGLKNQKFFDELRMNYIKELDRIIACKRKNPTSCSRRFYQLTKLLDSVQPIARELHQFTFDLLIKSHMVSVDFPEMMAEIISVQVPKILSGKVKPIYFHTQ
Assay: VCAP AR Degradation Assay
Type: cell-based
Settings: VCaP cells, 24 h, AR ELISA; for DC50: concentration of compound when AR level = 50% of DMSO control (50% AR degradation); for Y: lowest measured AR level normalized to DMSO control (AR degradation efficiency)
Protocol: VCAP AR Degradation Assay. Test compounds were pre-dispensed into a Corning CellBind 96-well clear bottom plate (Cat #3300) using an acoustic dispenser to make a 10-point concentration series at 1:3 dilution for each compound. The final top concentration of each compound was 5 μM. DMSO at a final concentration of 0.1% was used as a control. VCaP cells cultured in DMEM with 8% fetal bovine serum (FBS) were seeded at 50K cells per well in a 200 μL volume into the compound plate and incubated at 37° C. in a CO2 incubator for 24 h. The medium was carefully removed from the cells and the plate was placed on ice. […] ice-cold 1× cell lysis buffer from Cell Signaling Technologies (Cat #9803) was added to each well of the cells and the plate was incubated at 4° C. on a shaker for 1 h. Fifteen μL of cell lysate was used for AR ELISA detection using a PathScan Total Sandwich AR ELISA kit (Cell Signaling Technology, Cat #12580). AR levels in compound-treated wells were normalized to that of DMSO control and expressed as percent of control (PoC) (y). A Four Parameter Logistic Model (Sigmoidal Dose-Response Model) was used to determine the compound's DC50, and EC50, using the following equation: y=(A+((B−A)/(1+((C/x)^D)))) • A=YMin (lowest AR level normalized to DMSO control in response to compound treatment, as determined by curve fit) • B=YMax (maximum AR level as determined by curve fit) • C=EC50 • D=Hill Slope • x=compound concentration • EC50=the concentration of compound when y=[…] • DC50=the concentration of the compound when y=50% of DMSO control (50% AR degradation) • y=AR protein level normalized to DMSO control
The lowest measured AR level normalized to DMSO control in response to compound treatment, termed Y value, was used to characterize the compound-mediated AR degradation efficiency.

Structure (SMILES)	DC50 [nM]	Y
C[C@@H]1CN(CCO[C@H]2CC[C@H](N3C(=S)N(c4ccc(C#N)c(C(F)(F)F)c4)C(=O)C3(C)C)CC2)C[C@H](C)N1CC(=O)Nc1cccc2c(N3CCC(=O)NC3=O)nn(C)c12 [Cmpd 1, 2-((2S,6R)-4-(2-((trans-4-(3-(4-Cyano-3-(trifluoromethyl)phenyl)-5,5-dimethyl-4-oxo-2-thioxoimidazolidin-1-yl)cyclohexyl)oxy)ethyl)-2,6-dimethylpiperazin-1-yl)-N-(3-(2,4-dioxotetrahydropyrimidin-1(2H)-yl)-1-methyl-1H-indazol-7-yl)acetamide hydrochloride]	10 to 100	*** (30%<Y<60%)
C[C@@H]1CN(CCC[C@H]2CC[C@H](N3C(=S)N(c4ccc(C#N)c(C(F)(F)F)c4)C(=O)C3(C)C)CC2)C[C@H](C)N1CC(=O)Nc1cccc2c(N3CCC(=O)NC3=O)nn(C)c12 [Cmpd 2, 2-((2R,6S)-4-(3-(trans-4-(3-(4-Cyano-3-(trifluoromethyl)phenyl)-5,5-dimethyl-4-oxo-2-thioxoimidazolidin-1-yl)cyclohexyl)propyl)-2,6-dimethylpiperazin-1-yl)-N-(3-(2,4-dioxotetrahydropyrimidin-1(2H)-yl)-1-methyl-1H-indazol-7-yl)acetamide hydrochloride]	2 to 10	** (20%<Y≤%)
C[C@@H]1CN(CCO[C@H]2CC[C@H](N3C(=S)N(c4ccc(C#N)c(Cl)c4)C(=O)C3(C)C)CC2)C[C@H](C)N1CC(=O)Nc1cccc2c(N3CCC(=O)NC3=O)nn(C)c12 [Cmpd 3, 2-((2R,6S)-4-(2-((trans-4-(3-(3-Chloro-4-cyanophenyl)-5,5-dimethyl-4-oxo-2-thioxoimidazolidin-1-yl)cyclohexyl)oxy)ethyl)-2,6-dimethylpiperazin-1-yl)-N-(3-(2,4-dioxotetrahydropyrimidin-1(2H)-yl)-1-methyl-1H-indazol-7-yl)acetamide hydrochloride]	2 to 10	*** (30%<Y<60%)
C[C@@H]1CN(CCO[C@H]2CC[C@H](N3C(=S)N(c4cnc(C#N)c(C(F)(F)F)c4)C(=O)C3(C)C)CC2)C[C@H](C)N1CC(=O)Nc1cccc2c(N3CCC(=O)NC3=O)nn(C)c12 [Cmpd 4, 2-((2R,6S)-4-(2-((trans-4-(3-(6-Cyano-5-(trifluoromethyl)pyridin-3-yl)-5,5-dimethyl-4-oxo-2-thioxoimidazolidin-1-yl)cyclohexyl)oxy)ethyl)-2,6-dimethylpiperazin-1-yl)-N-(3-(2,4-dioxotetrahydropyrimidin-1(2H)-yl)-1-methyl-1H-indazol-7-yl)acetamide hydrochloride]	2 to 10	** (20%<Y≤%)
C[C@@H]1CN(CCO[C@H]2CC[C@H](N3C(=S)N(c4ccc(C#N)c(C(F)(F)F)c4)C(=O)C3(C)C)CC2)C[C@H](C)N1CCC(=O)Nc1cccc2c(N3CCC(=O)NC3=O)nn(C)c12 [Cmpd 5, 3-((2R,6S)-4-(2-((trans-4-(3-(4-Cyano-3-(trifluoromethyl)phenyl)-5,5-dimethyl-4-oxo-2-thioxoimidazolidin-1-yl)cyclohexyl)oxy)ethyl)-2,6-dimethylpiperazin-1-yl)-N-(3-(2,4-dioxotetrahydropyrimidin-1(2H)-yl)-1-methyl-1H-indazol-7-yl)propanamide]	2 to 10	*** (30%<Y<60%)
C[C@@H]1CN(CCO[C@H]2CC[C@H](N3C(=S)N(c4cnc(C#N)c(Cl)c4)C(=O)C3(C)C)CC2)C[C@H](C)N1CC(=O)Nc1cccc2c(N3CCC(=O)NC3=O)nn(C)c12 [Cmpd 6, 2-((2R,6S)-4-(2-((trans-4-(3-(5-Chloro-6-cyanopyridin-3-yl)-5,5-dimethyl-4-oxo-2-thioxoimidazolidin-1-yl)cyclohexyl)oxy)ethyl)-2,6-dimethylpiperazin-1-yl)-N-(3-(2,4-dioxotetrahydropyrimidin-1(2H)-yl)-1-methyl-1H-indazol-7-yl)acetamide hydrochloride]	≤ 2	* (0<Y≤20%)
C[C@@H]1CN(CCCO[C@H]2CC[C@H](N3C(=S)N(c4cnc(C#N)c(C(F)(F)F)c4)C(=O)C3(C)C)CC2)C[C@H](C)N1CC(=O)Nc1cccc2c(N3CCC(=O)NC3=O)nn(C)c12 [Cmpd 7, 2-((2R,6S)-4-(3-((trans-4-(3-(6-Cyano-5-(trifluoromethyl)pyridin-3-yl)-5,5-dimethyl-4-oxo-2-thioxoimidazolidin-1-yl)cyclohexyl)oxy)propyl)-2,6-dimethylpiperazin-1-yl)-N-(3-(2,4-dioxotetrahydropyrimidin-1(2H)-yl)-1-methyl-1H-indazol-7-yl)acetamide hydrochloride]	≤ 2	** (20%<Y≤%)
C[C@@H]1CN(CCCO[C@H]2CC[C@H](N3C(=S)N(c4ccc(C#N)c(C(F)(F)F)c4)C(=O)C3(C)C)CC2)C[C@H](C)N1CC(=O)Nc1cccc2c(N3CCC(=O)NC3=O)nn(C)c12 [Cmpd 8, 2-((2R,6S)-4-(3-((trans-4-(3-(4-Cyano-3-(trifluoromethyl)phenyl)-5,5-dimethyl-4-oxo-2-thioxoimidazolidin-1-yl)cyclohexyl)oxy)propyl)-2,6-dimethylpiperazin-1-yl)-N-(3-(2,4-dioxotetrahydropyrimidin-1(2H)-yl)-1-methyl-1H-indazol-7-yl)acetamide hydrochloride]	≤ 2	* (0<Y≤20%)
C[C@@H]1CN(CCCO[C@H]2CC[C@H](N3C(=S)N(c4ccc(C#N)c(Cl)c4)C(=O)C3(C)C)CC2)C[C@H](C)N1CC(=O)Nc1cccc2c(N3CCC(=O)NC3=O)nn(C)c12 [Cmpd 9, 2-((2R,6S)-4-(3-((trans-4-(3-(3-Chloro-4-cyanophenyl)-5,5-dimethyl-4-oxo-2-thioxoimidazolidin-1-yl)cyclohexyl)oxy)propyl)-2,6-dimethylpiperazin-1-yl)-N-(3-(2,4-dioxotetrahydropyrimidin-1(2H)-yl)-1-methyl-1H-indazol-7-yl)acetamide hydrochloride]	≤ 2	* (0<Y≤20%)
C[C@@H]1CN(CCC[C@H]2CC[C@H](N3C(=S)N(c4cnc(C#N)c(C(F)(F)F)c4)C(=O)C3(C)C)CC2)C[C@H](C)N1CC(=O)Nc1cccc2c(N3CCC(=O)NC3=O)nn(C)c12 [Cmpd 10, 2-((2R,6S)-4-(3-(trans-4-(3-(6-Cyano-5-(trifluoromethyl)pyridin-3-yl)-5,5-dimethyl-4-oxo-2-thioxoimidazolidin-1-yl)cyclohexyl)propyl)-2,6-dimethylpiperazin-1-yl)-N-(3-(2,4-dioxotetrahydropyrimidin-1(2H)-yl)-1-methyl-1H-indazol-7-yl)acetamide hydrochloride]	2 to 10	* (0<Y≤20%)
C[C@@H]1CN(CCC[C@H]2CC[C@H](N3C(=S)N(c4ccc(C#N)c(Cl)c4)C(=O)C3(C)C)CC2)C[C@H](C)N1CC(=O)Nc1cccc2c(N3CCC(=O)NC3=O)nn(C)c12 [Cmpd 11, 2-((2S,6R)-4-(3-(trans-4-(3-(3-Chloro-4-cyanophenyl)-5,5-dimethyl-4-oxo-2-thioxoimidazolidin-1-yl)cyclohexyl)propyl)-2,6-dimethylpiperazin-1-yl)-N-(3-(2,4-dioxotetrahydropyrimidin-1(2H)-yl)-1-methyl-1H-indazol-7-yl)acetamide hydrochloride]	10 to 100	*** (30%<Y<60%)
